Experiments:
Colletotrichum acutatum = assay: Fungicidal effect test against fungus causing apple anthracnose (spore suspension, turbidity); format: cell-based; conditions: 96 h, 25 ppm by volume, Czapek medium, 25° C., four days
Glomerella cingulata = assay: Fungicidal effect test against fungi causing grape ripe rot disease (spore suspension, turbidity); format: cell-based; conditions: Colletotrichum gloeosporioides, 72 h; 25 ppm by volume; Vogel medium; 25° C., three days
Botrytis cinerea = assay: Control test of cucumber gray mold (sprayed young cucumber seedlings, inoculated); conditions: in Cucumis sativus, 96 h, read-out: control value
Method: Water was added to the emulsion to obtain a drug liquid in which the concentration of the five-membered heteroaryl compound according to the present invention reached a predetermined concentration. Then, the drug liquid was sprayed onto young cucumber seedlings cultivated in a nursery pot (variety “Jihai”-based, cotyledon stage), and then air-dried. […] They were left still in a moist room at 20° C.

| SMILES | inhibition of growth at 25 ppm (Colletotrichum acutatum) [%] | inhibition of growth at 25 ppm (Glomerella cingulata) [%] | pest or weed control at 25 ppm (Botrytis cinerea) [%] | pest or weed control at 125 ppm (Botrytis cinerea) [%] |
| --- | --- | --- | --- | --- |
| CO/N=C(\NCCc1ccc(C)cc1C)c1c(Oc2cccc(C#N)c2)cnn1C [a-33] | ≥ 75 | ≥ 75 | – | – |
| C=C/C(=C\C=C\C)CC1CON=C(c2c(Oc3cccc(C)c3)c(C)nn2C)N1 (stereo not drawn) [a-31] | ≥ 75 | ≥ 75 | – | – |
| Cc1ccc(C2CON=C(c3c(Oc4cccc(C(F)(F)F)c4)cnn3C)N2)s1 (stereo not drawn) [a-26, 3-(1-methyl-4-(3-(trifluoromethyl)phenoxy)-1H-pyrazol-5-yl)-5-(5-methylthiophen-2-yl)-5,6-dihydro-4H-1,2,4-oxadiazine] | ≥ 75 | ≥ 75 | – | – |
| Cc1cccc(Oc2nnn(C)c2C2=NOCC(Cc3ccc(C)cc3C)N2)c1 (stereo not drawn) [a-12] | ≥ 75 | ≥ 75 | ≥ 75 | ≥ 75 |
| C/C=C(C)\C=C(\C)CCCN/C(=N\OC)c1c(Oc2cccc(Cl)c2)cnn1C [a-17] | ≥ 75 | ≥ 75 | – | – |
| Cc1ccc(CC2CON=C(c3c(Oc4cccc(C5CC5)c4)cnn3C)N2)c(C)c1 (stereo not drawn) [a-3] | ≥ 75 | ≥ 75 | – | ≥ 75 |
| Cc1ccc(CC2CON=C(c3c(Oc4cccc(Br)c4)cnn3CC(F)(F)F)N2)cc1 (stereo not drawn) [a-24] | ≥ 75 | ≥ 75 | – | – |
| CO/N=C(\NCCc1ccc(Br)cc1)c1c(Oc2cccc(C)c2)cnn1C [a-23] | ≥ 75 | ≥ 75 | – | – |
| Cc1ccc(Oc2cnn(C)c2C2=NOCC(Cc3ccc(C)cc3C)N2)cc1 (stereo not drawn) [a-7] | ≥ 75 | ≥ 75 | – | – |
| C/C=C/c1ccc(CC2CON=C(c3c(Oc4cccc(C)c4)cnn3C)N2)c(C)c1 (stereo not drawn) [a-35] | ≥ 75 | ≥ 75 | – | – |
| C=C(C)/C(=C\C=C\C)CC(CON)NCc1c(Oc2ccc(Br)cc2)cnn1C (stereo not drawn) [a-5] | ≥ 75 | ≥ 75 | – | – |
| CO/N=C(\NCCc1ccc(C)cc1)c1c(Oc2cccc(I)c2)cnn1C [a-8] | ≥ 75 | ≥ 75 | – | ≥ 75 |
| CO/N=C(\NCCc1ccc(C)cc1C)c1c(Oc2cccc(C(F)(F)F)c2F)nnn1C [a-16] | ≥ 75 | ≥ 75 | – | – |
| C=C/C(=C\C=C\Br)CCN/C(=N\OC)c1c(Oc2cccc(C)c2)cnn1CC [a-22] | ≥ 75 | ≥ 75 | – | – |
| CO/N=C(\NCCc1ccc(C)cc1)c1c(Oc2ccc(Cl)c(C)c2)nnn1C [a-13] | ≥ 75 | ≥ 75 | – | – |
| Cn1ncc(Oc2cccc(C(F)(F)F)c2)c1C1=NOCC(c2cccs2)N1 (stereo not drawn) [a-25, 3-(1-methyl-4-(3-(trifluoromethyl)phenoxy)-1H-pyrazol-5-yl)-5-(thiophen-2-yl)-5,6-dihydro-4H-1,2,4-oxadiazine] | – | ≥ 75 | – | – |
| C=C/C(=C\C=C\C)CC1CON=C(c2c(Oc3cccc(C)c3)cnn2C(C)C)N1 (stereo not drawn) [a-27] | ≥ 75 | ≥ 75 | ≥ 75 | ≥ 75 |
| Cc1ccc(C(CON)NCc2c(Oc3cccc(C(F)(F)F)c3)cnn2C)o1 (stereo not drawn) [a-29] | – | ≥ 75 | – | – |
| C/C=C(Cl)\C=C(\Cl)CCC1CON=C(c2c(Oc3cccc(C)c3)cnn2CC)N1 (stereo not drawn) [a-21] | ≥ 75 | ≥ 75 | – | – |
| C/C=C(C)\C=C(\C)CCC1CON=C(c2c(Oc3cccc(Br)c3F)cnn2C)N1 (stereo not drawn) [a-19] | ≥ 75 | ≥ 75 | – | – |
| C/C=C(C#N)\C=C(\C)CCC1CON=C(c2c(Oc3cccc(C)c3)cnn2C)N1 (stereo not drawn) [a-34] | ≥ 75 | ≥ 75 | – | ≥ 75 |
| CCc1cccc(Oc2cnn(C)c2C2=NOCC(Cc3ccc(C)cc3C)N2)c1 (stereo not drawn) [a-10, 5-(2,4-dimethylbenzyl)-3-(4-(3-ethylphenoxy)-1-methyl-1H-pyrazol-5-yl)-5,6-dihydro-4H-1,2,4-oxadiazine] | ≥ 75 | ≥ 75 | – | – |
| Cc1cccc(Oc2c(Cl)nn(C)c2C2NOCC(Cc3ccc(C)cc3C)N2)c1 (stereo not drawn) [a-18] | ≥ 75 | ≥ 75 | – | – |
| CCn1ncc(Oc2cccc(C)c2)c1CNC(CON)Cc1ccc(C)cc1C (stereo not drawn) [a-20] | ≥ 75 | ≥ 75 | – | – |
| Cc1cc(C2CON=C(c3c(Oc4cccc(C(F)(F)F)c4)cnn3C)N2)c(C)s1 (stereo not drawn) [a-28] | ≥ 75 | ≥ 75 | – | – |
| CO/N=C(\NCCC1CC=C(C)C=C1C)c1c(Oc2ccc(C3CC3)cc2)cnn1C (stereo not drawn) [a-6] | – | ≥ 75 | – | – |
| C=C/C(=C\C=C\C)CCN/C(=N\OC)c1c(Oc2cccc(Br)c2)cnn1C [a-2] | ≥ 75 | ≥ 75 | ≥ 75 | – |
| CCn1nc(Cl)c(Oc2cccc(C(F)(F)F)c2)c1C1=NOCC(Cc2ccc(C)cc2C)N1 (stereo not drawn) [a-30, 3-(3-chloro-1-ethyl-4-(3-(trifluoromethyl)phenoxy)-1H-pyrazol-5-yl)-5-(2,4-dimethylbenzyl)-5,6-dihydro-4H-1,2,4-oxadiazine] | ≥ 75 | ≥ 75 | ≥ 75 | ≥ 75 |

From patent publication US20260184701A1, “FIVE-MEMBERED HETEROARYL COMPOUND AND AGRICULTURAL AND HORTICULTURAL FUNGICIDE” (Nippon Soda Co., Ltd., priority 2022, published 2026)
